Laboratory results taken from publication PMC9814838, “The orphan nuclear receptor Nurr1 is responsive to non-steroidal anti-inflammatory drugs” (Communications Chemistry, 2020).
Several values for one entry are separate records, joined by “and”; a condition that tells them apart may be missing. Identical values can stand only once. Entries after “also recorded” stand apart in the source; their conditions may differ.

B1: GFP-Nurr1 LBD (domain or fragment, human, UniProt P43354-1 364-598, looked up)
chain: LISALVRAHVDSNPAMTSLDYSRFQANPDYQMSGDDTQHIQQFYDLLTGSMEIIRGWAEKIPGFADLPKADQDLLFESAFLELFVLRLAYRSNPVEGKLIFCNGVVLHRLQCVRGFGEWIDSIVEFSSNLQNMNIDISAFSCIAALAMVTERHGLKEPKRVEELQNKIVNCLKDHVTFNNGGLNRPNYLSKLLGKLPELRTLCTQGLQRIFYLKLEDLVPPPAIIDKLFLDTLPF
notes: Superfolder GFP is the FRET acceptor; a BamHI site lies between GFP and the LBD; also called GFP-labeled Nurr1 LBD; source: E. coli T7 express with pGro7, purified (IMAC, TEV cleavage, reverse IMAC, SEC); not shown: His10, N-terminal, cleaved; superfolder GFP, N-terminal, kept
B2: biotinylated recombinant Nurr1 LBD (Tb-labeled through Tb-cryptate streptavidin) (domain or fragment, human, UniProt P43354-1 364-598, looked up)
chain: B1 chain
modifications: biotin on the lysine residue in the Avi-Tag
notes: In the assays coupled to terbium cryptate streptavidin conjugate (Tb-SA) as FRET donor; also called Tb-labeled Nurr1 LBD; Tb-cryptate-labeled Nurr1 LBD; source: E. coli T7 express with pGro7, purified (IMAC, TEV cleavage, amylose resin, birA biotinylation, monomeric avidin, SEC); not shown: MBP, N-terminal, cleaved; His8, N-terminal, cleaved; Avi-Tag, N-terminal, kept

Assays:
Gal4-VP16 = target: T1, Gal4-VP16 (Human herpesvirus 1, UniProt P06492); format: cell-based; conditions: n ≥ 4
T1 construct: host or cells: HEK293T

Nur77 = target: T2, Nur77 (Homo sapiens, UniProt P22736); experiment: Gal4-Nur77 hybrid reporter gene assay in HEK293T cells; format: cell-based; conditions: for Nur77 activity 10μM (mean fold activation) / Nur77 activity 30μM (mean fold activation): primary screen, n ≥ 2, ^# not significant vs VP16 control; for Nur77 min./max. activation: compared to 0.1% DMSO
T2 construct: Nur77 (uniprot entry: hNUR77–P22736, residues 358–598); expressed in transfected cells; host or cells: HEK293T
T2 sequence (P22736 358-598): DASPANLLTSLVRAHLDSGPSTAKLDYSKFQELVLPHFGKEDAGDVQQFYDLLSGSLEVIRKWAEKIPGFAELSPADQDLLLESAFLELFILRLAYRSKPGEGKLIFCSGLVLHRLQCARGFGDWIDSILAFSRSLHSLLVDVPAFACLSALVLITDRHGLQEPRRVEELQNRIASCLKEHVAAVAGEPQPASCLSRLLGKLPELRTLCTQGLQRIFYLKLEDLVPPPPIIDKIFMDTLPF

PPAR; RXRα; RARα = experiment: Selectivity profiling in Gal4 hybrid reporter gene assays outside the NR4A family; format: cell-based, human; conditions: rel. activation vs reference agonists at 1 µM; n ≥ 4
NOR1 = target: T3, NOR1 (Homo sapiens, UniProt Q92570); experiment: Gal4-NOR1 hybrid reporter gene assay in HEK293T cells; format: cell-based; conditions: for Nor1 activity 10μM (mean fold activation) / Nor1 activity 30μM (mean fold activation): primary screen, n ≥ 2, ^# not significant vs VP16 control; for NOR1 min./max. activation: compared to 0.1% DMSO
T3 construct: NOR1 (isoform alpha; uniprot entry: hNOR1–Q92570-1, residues 393–626); expressed in transfected cells; host or cells: HEK293T
T3 sequence (Q92570 393-626): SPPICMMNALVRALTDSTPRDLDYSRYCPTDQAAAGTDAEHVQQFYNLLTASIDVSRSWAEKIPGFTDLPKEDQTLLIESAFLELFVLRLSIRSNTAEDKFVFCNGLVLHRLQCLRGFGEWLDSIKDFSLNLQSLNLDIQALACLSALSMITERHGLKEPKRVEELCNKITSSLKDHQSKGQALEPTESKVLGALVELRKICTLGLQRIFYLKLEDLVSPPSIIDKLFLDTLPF

Nurr1 = target: T4, Nurr1 (Homo sapiens, UniProt P43354); experiment: Gal4-Nurr1 hybrid reporter gene assay in HEK293T cells; format: cell-based; conditions: for Nurr1 activity 10μM (mean fold activation) / Nurr1 activity 30μM (mean fold activation): primary screen, n ≥ 2, ^# not significant vs VP16 control; for Nurr1-dependent reporter activity in primary screen (fold activation): 10 or 30 µM; for Gal4-Nurr1 maximum/minimum activation: vs 0.1% DMSO
T4 construct: Nurr1 (uniprot entry: hNURR1–P43354, residues 360–598); expressed in transfected cells; host or cells: HEK293T
T4 sequence (P43354 360-598): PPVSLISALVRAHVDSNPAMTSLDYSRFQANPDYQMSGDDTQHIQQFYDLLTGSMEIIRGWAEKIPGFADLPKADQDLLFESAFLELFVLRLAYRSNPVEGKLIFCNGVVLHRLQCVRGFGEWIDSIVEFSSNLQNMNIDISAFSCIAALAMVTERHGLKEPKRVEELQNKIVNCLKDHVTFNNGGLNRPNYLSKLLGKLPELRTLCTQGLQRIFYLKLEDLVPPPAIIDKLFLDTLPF

firefly luciferase = firefly luciferase (Photinus pyralis, UniProt P08659); experiment: Firefly luciferase inhibition; conditions: compounds marked with * in Fig. 2a
Sequence of firefly luciferase (P08659 whole entry): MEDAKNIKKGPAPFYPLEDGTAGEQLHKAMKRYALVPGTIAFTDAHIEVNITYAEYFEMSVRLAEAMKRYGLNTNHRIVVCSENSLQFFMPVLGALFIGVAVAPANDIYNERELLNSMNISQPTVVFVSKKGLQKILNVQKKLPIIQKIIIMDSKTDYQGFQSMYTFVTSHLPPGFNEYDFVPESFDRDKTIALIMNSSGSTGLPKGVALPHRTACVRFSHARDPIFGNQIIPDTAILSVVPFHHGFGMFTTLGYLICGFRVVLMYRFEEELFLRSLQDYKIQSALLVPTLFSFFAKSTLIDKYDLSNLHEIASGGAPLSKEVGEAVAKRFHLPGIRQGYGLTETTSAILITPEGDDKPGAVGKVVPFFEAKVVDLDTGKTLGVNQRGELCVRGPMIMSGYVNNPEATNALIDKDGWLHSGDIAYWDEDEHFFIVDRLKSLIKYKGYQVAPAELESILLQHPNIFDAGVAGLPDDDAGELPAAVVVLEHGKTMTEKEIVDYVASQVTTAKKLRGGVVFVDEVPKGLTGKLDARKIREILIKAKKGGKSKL

[1] = target: T5, DR5: Nurr1–RXRα heterodimer (Homo sapiens, UniProt P43354); experiment: Full-length Nurr1 reporter gene assay on DR5 response element; format: cell-based; conditions: mean ± SD
T5 construct: the activity of full-length human Nurr1 in cellular settings; host or cells: HEK293T
T5 sequence (P43354 whole entry, one chain of several): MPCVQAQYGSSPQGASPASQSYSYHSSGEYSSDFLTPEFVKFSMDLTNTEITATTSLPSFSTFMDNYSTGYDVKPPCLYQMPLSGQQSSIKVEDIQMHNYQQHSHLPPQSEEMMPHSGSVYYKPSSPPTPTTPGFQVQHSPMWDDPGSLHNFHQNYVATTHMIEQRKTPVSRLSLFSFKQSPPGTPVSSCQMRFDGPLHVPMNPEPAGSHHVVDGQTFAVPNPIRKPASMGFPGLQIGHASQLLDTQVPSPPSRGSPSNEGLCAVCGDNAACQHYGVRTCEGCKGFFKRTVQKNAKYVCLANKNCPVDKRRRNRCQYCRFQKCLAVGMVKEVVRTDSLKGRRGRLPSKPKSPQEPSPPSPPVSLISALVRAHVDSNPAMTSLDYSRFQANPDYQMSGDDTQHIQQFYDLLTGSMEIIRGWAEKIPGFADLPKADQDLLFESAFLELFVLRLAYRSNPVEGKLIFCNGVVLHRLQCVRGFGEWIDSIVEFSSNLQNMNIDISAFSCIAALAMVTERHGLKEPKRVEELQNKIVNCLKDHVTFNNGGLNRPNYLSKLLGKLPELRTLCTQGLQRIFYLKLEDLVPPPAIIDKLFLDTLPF

NurRE: Nurr1 homodimer = target: T6, NurRE: Nurr1 homodimer (Homo sapiens, UniProt P43354); experiment: Full-length Nurr1 reporter gene assay on NurRE response element; format: cell-based; conditions: mean ± SD
T6 construct: the activity of full-length human Nurr1 in cellular settings; host or cells: HEK293T
T6 sequence (P43354 whole entry): as the sequence (P43354 whole entry, one chain of several) above

Nurr1–NCoR-1 interaction = target: T7, Nurr1–NCoR-1 interaction (Homo sapiens, UniProt P43354); experiment: Nurr1–NCoR-1 interaction HTRF (GFP-Nurr1 LBD titrated against Tb-labeled NCoR-1); format: biochemical; conditions: cell-free; ligand fixed at 100 µM
T7 construct: Nurr1 (uniprot entry: P43354-1, residues 364–598); His10-Tag (N, cleaved yes); made in house; host or cells: E. coli T7 express (with pGro7)
Description: Since ligand concentration was fixed in this setting, interference with the HTRF system is less prone to generate potential artifacts.
To maintain a constant GFP concentration, free GFP protein was added to the dilution series. The experiments were performed in HTRF assay buffer (150 mM KF, 25 mM HEPES pH 7.5 (KOH), 5% (w/v) Glycerol, supplemented with 0.1% (w/v) CHAPS and 5 mM DTT) with 1% DMSO in an assay volume of 20 µl. After 1 h incubation at RT, fluorescence intensities after excitation at 340 nm were recorded at 520 nm for GFP acceptor fluorescence and 620 nm for Tb-SA donor fluorescence and the HTRF signal was calculated as described above.

Nurr1 LBD homodimer = target: T8, Nurr1 LBD homodimer (Homo sapiens, UniProt P43354); experiment: Nurr1 homodimerization HTRF (GFP-Nurr1 LBD vs Tb-labeled Nurr1 LBD); format: biochemical; conditions: cell-free; ligand 100 µM
T8 construct: Nurr1 (uniprot entry: P43354-1, residues 364–598); MBP-Asn10 linker (N, cleaved yes); His8-Tag (N, cleaved yes); His10-Tag (N, cleaved yes); made in house; host or cells: E. coli T7 express (with pGro7)
Description: Strength and modulation of the formation of the heterodimer composed of the LBDs of Nurr1 and RXRα was investigated by titration of GFP-RXRα LBD against a fixed concentration of Nurr1 LBD. Assay solutions were prepared in HTRF assay buffer supplemented with 0.1% (w/v) CHAPS as well as 1% DMSO with test compounds at 100 µM or DMSO alone as negative control. […] Free GFP was added to keep the total GFP content stable at 4 µM throughout the entire series in order to suppress artefacts from changes in degree of diffusion enhanced FRET. Samples were equilibrated at RT for 2 h before FI520 and FI620 were recorded after excitation at 340 nm, and the HTRF signal was calculated as described above.

NBRE: Nurr1 monomer = target: T9, NBRE: Nurr1 monomer (Homo sapiens, UniProt P43354); experiment: Full-length Nurr1 reporter gene assay on NBRE response element; format: cell-based
T9 construct: the activity of full-length human Nurr1 in cellular settings; host or cells: HEK293T
T9 sequence (P43354 whole entry): as the sequence (P43354 whole entry, one chain of several) above

[2] = target: B2; experiment: AlphaScreen or HTRF; Nurr1 homodimerization: GFP-Nurr1 LBD titrated from 500 nM against biotinylated Nurr1 LBD 0.375 nM on Tb-SA 0.75 nM; free GFP added to keep total GFP at 500 nM; HTRF assay buffer with 0.1% CHAPS; 1% DMSO alone or with AQ, CQ, parecoxib or oxaprozin at 100 µM; 2 h at RT; conditions: both partners purified
GFP-RXRα LBD = target: T10, GFP-RXRα LBD (human, UniProt P19793-1 226-462); experiment: AlphaScreen or HTRF; Nurr1-RXR heterodimerization: GFP-RXRα LBD titrated from 4 µM (dilution factor 0.7) against biotinylated Nurr1 LBD 0.375 nM on Tb-SA 0.75 nM; free GFP added to keep total GFP at 4 µM; HTRF assay buffer with 0.1% CHAPS; 1% DMSO alone or with AQ, CQ, MFA, parecoxib or oxaprozin at 100 µM; 2 h at RT; conditions: both partners purified
T10 construct: Superfolder GFP is the FRET acceptor; a BamHI site lies between GFP and the LBD; also called GFP-labeled RXRα LBD; source: E. coli T7 express with pGro7, purified (IMAC, TEV cleavage, reverse IMAC, SEC); not shown: His10, N-terminal, cleaved; superfolder GFP, N-terminal, kept
T10 sequence (looked up): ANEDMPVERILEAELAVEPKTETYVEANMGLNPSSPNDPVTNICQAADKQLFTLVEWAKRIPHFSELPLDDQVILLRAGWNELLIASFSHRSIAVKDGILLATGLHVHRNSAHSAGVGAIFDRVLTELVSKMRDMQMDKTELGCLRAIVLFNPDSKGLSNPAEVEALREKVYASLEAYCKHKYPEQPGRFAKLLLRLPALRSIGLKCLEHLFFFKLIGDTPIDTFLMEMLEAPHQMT

[3] = full-length human Nurr1 and RXRα overexpressed, HEK293T
[4] = full-length human Nurr1, HEK293T
[5] = full-length human Nurr1, HEK293T, mean ± SD

Molecule | Control experiments on Gal4-VP16 (non-specific reporter effects) (Gal4-VP16) | Nur77 activity 10μM (mean fold activation) (Nur77) | Nur77 activity 30μM (mean fold activation) (Nur77) | Selectivity over PPAR, RXRα, RARα (PPAR; RXRα; RARα) | Nor1 activity 10μM (mean fold activation) (NOR1) | Nor1 activity 30μM (mean fold activation) (NOR1) | Nurr1 activity 10μM (mean fold activation) (Nurr1) | Nurr1 activity 30μM (mean fold activation) (Nurr1) | Gal4-Nurr1 maximum/minimum activation (Nurr1; mean ± SD) | NCoR-1 affinity (effect of ligand) (Nurr1–NCoR-1 interaction) | Homodimerization (effect of ligand) (Nurr1 LBD homodimer) | EC50 (Nurr1; HEK293T, mean ± SD, n≥3) | also measured
Cc1onc(-c2ccccc2)c1-c1ccc(S(N)(=O)=O)cc1 [valdecoxib] | no non-specific reporter suppression | 0.90 fold | 0.82 fold | confirmed selectivity | 1.05 fold | 0.76 fold | 0.79 fold | 0.54 fold | 0.52 ± 0.04 fold |  |  |  | Nurr1-dependent reporter activity in primary screen (fold activation) (Nurr1): < 0.80 fold; IC50 (Nurr1; HEK293T, mean ± SD, n≥3): 13 ± 3 µM
Cc1ccc(Nc2c(F)cccc2Cl)c(CC(=O)O)c1 [lumiracoxib] |  | 0.76 fold | 0.66 fold |  | 0.86 fold | 0.79 fold | 0.90 fold | 0.76 fold |  |  |  |  | Inhibition of firefly luciferase (firefly luciferase): inhibit firefly luciferase
CCC(=O)NS(=O)(=O)c1ccc(-c2c(-c3ccccc3)noc2C)cc1 [parecoxib] | no non-specific reporter suppression |  |  |  |  |  |  |  |  | Decreases affinity | diminished Nurr1 dimer formation |  | IC50 [1, 3]: 20 µM; DR5: Nurr1–RXRα heterodimer maximum/minimum activation [1]: 0.5 ± 0.1 fold; IC50 (NurRE: Nurr1 homodimer; [4]): 21 µM; NurRE: Nurr1 homodimer maximum/minimum activation (NurRE: Nurr1 homodimer): 0.4 ± 0.1 fold; IC50 (Nur77; HEK293T, mean ± SD, n≥3): 23.7 ± 0.2 µM; Nur77 min./max. activation (Nur77; mean ± SD): 0.1 ± 0.0; IC50 (NOR1; HEK293T, mean ± SD, n≥3, read-out: NOR1 IC50): 25 ± 4 µM; NOR1 min./max. activation (NOR1; mean ± SD): 0.22 ± 0.05; IC50 (NBRE: Nurr1 monomer; [5]): 15 µM; NBRE: Nurr1 monomer maximum/minimum activation (NBRE: Nurr1 monomer; mean ± SD): 0.41 ± 0.05 fold
O=C(O)COC(=O)Cc1ccccc1Nc1c(Cl)cccc1Cl [aceclofenac] |  | 0.84 fold | 0.60 fold | confirmed selectivity | 0.94 fold | 0.49 fold | 0.85 fold | 0.46 fold | 1.99 ± 0.07 fold |  |  | 2.5 ± 0.1 µM | Inhibition of firefly luciferase (firefly luciferase): inhibit firefly luciferase
CCN(CC)CCCC(C)Nc1ccnc2cc(Cl)ccc12 (stereo not drawn) [CQ, chloroquine] |  |  |  |  |  |  |  |  |  | promoted the Nurr1–NCoR-1 interaction; also recorded: Enhances affinity | promoted homodimerization; also recorded: Promotes dimerization | 47 µM | EC50 [1, 3]: 57 µM; EC50 (NurRE: Nurr1 homodimer; [4]): 54 µM; EC50 (NBRE: Nurr1 monomer; [5]): 38 µM
Cc1ccc(Cl)c(Nc2ccccc2C(=O)O)c1Cl [MFA, Meclofenamic acid] | clearly Nurr1 mediated | 3.01 fold | toxic | confirmed selectivity | 3.92 fold | toxic | 3.60 fold | toxic | 3.52 ± 0.05 fold | markedly reduced affinity; also recorded: Decreases affinity | entirely prevented homodimerization; also recorded: Decreases dimerization | 4.7 µM | IC50 [1, 3]: 10.7 µM; DR5: Nurr1–RXRα heterodimer maximum/minimum activation [1]: 0.79 ± 0.01 fold; IC50 (NurRE: Nurr1 homodimer; [4]): 5.2 µM; NurRE: Nurr1 homodimer maximum/minimum activation (NurRE: Nurr1 homodimer): 0.70 ± 0.01 fold; EC50 (Nur77; HEK293T, mean ± SD, n≥3): 3.9 ± 0.7 µM; Nur77 min./max. activation (Nur77; mean ± SD): 3.3 ± 0.4; EC50 (NOR1; HEK293T, mean ± SD, n≥3): 7.9 ± 0.8 µM; NOR1 min./max. activation (NOR1; mean ± SD): 5.5 ± 0.6; NBRE: Nurr1 monomer activity in words (NBRE: Nurr1 monomer; [4]): Inactive; Nurr1-dependent reporter activity in primary screen (fold activation) (Nurr1): > 1.5 fold; Gal4-Nurr1 maximum/minimum activation (Nurr1; mean ± SD, listed as meclofenamic acid): 3.52 ± 0.05 fold and 3.52 ± 0.07 fold
B1 |  |  |  |  |  |  |  |  |  |  |  |  | binding result [2]: binds
B2 |  |  |  |  |  |  |  |  |  |  |  |  | binding result (GFP-RXRα LBD): binds
